Results from patent US6432983B1, “Benzothiophene compounds intermediates processes and methods of use” (Eli Lilly and Company, priority 1996, dated 2002).
Marks after values point to notes of the source that are not given here.

Tested on: ovariectomized rats
Experiment: ovariectomized rat model of postmenopausal hyperlipidemia (uterine weight, uterine eosinophil peroxidase, serum cholesterol)
Format: in vivo
Design: Uterine Eosinophil (Vmax): unit not given here
Conditions: for Serum Cholest. % Dec: decrease versus ovariectomized controls
Description: Experimental models of postmenopausal hyperlipidemia are known in the art. Germane to this invention is the ovariectomized rat model which is detailed in U.S. Pat. No. 5,464,845.
Data presented in Table 1 show comparative results among ovariectomized rats, rats treated with 17-α-ethynyl estradiol(EE2), and rats treated with certain compounds of this invention. […] This uterine response to estrogen is well recognized in the art.
Not only did the compounds of the present invention reduce serum cholesterol compared to the ovariectomized animals, but the uterine weight was increased to lesser extent than those given EE2. Compared to estrogenic compounds known in the art, the benefit of serum cholesterol reduction while lessening the effect on uterine weight is unusual and desirable.
As expressed in the data below, estrogenicity also was assessed by evaluating the response of eosinophil infiltration into the uterus.
The data presented in Table 1 reflect the response per treatment group.

[1] = ovariectomized rats, dose 1.0 mg/kg
[2] = ovariectomized rats, dose 10.0 mg/kg

Compound | uterine weight (in words) (compared to the ovariectomized animals or to EE2) | serum cholesterol (in words) (compared to the ovariectomized animals, EE2 orally at 0.1 mg/kg/day) | Uterine Weight % Inc (ovariectomized rats, dose 0.1 mg/kg, % increase versus the ovariectomized controls) | Uterine Eosinophil (Vmax) (ovariectomized rats, dose 0.1 mg/kg, Eosinophil peroxidase, Vmaximum) | Serum Cholest. % Dec (ovariectomized rats, dose 0.1 mg/kg) | eosinophil infiltration into the uterus (in words) (stromal layer of the ovariectomized rat uteri) | Serum Cholest. % Dec [1] | Serum Cholest. % Dec [2] | Uterine Eosinophil (Vmax) (rat, in vivo, 1 mg/kg) | Uterine Weight % Inc (rat, in vivo, 1 mg/kg) | Uterine Eosinophil (Vmax) (rat, in vivo, 10 mg/kg) | Uterine Weight % Inc (rat, in vivo, 10 mg/kg)
C#C[C@]1(O)CC[C@H]2[C@@H]3CCc4cc(O)ccc4[C@H]3CC[C@@]21C [EE2, 17-α-ethynyl estradiol, reference compound] | substantially greater than the uterine weight of the ovariectomized animals | caused a decrease in serum cholesterol | 125.8* % | 111.2* | 88.1* % | substantial and expected increase in eosinophil infiltration |  |  |  |  |  | 
O=C(c1ccc(OCCCN2CCCC2)cc1)c1c(-c2ccc(O)cc2)sc2cc(O)ccc12 [Example 15, [2-(4-Hydroxyphenyl)-6-hydroxybenzo[b]thien-3-yl][4-[3-(1-pyrrolidinyl)propyloxyl]phenyl]methanone] |  |  |  |  |  |  | 62.7* % | 64.0* % | 51.6* | 52.6* % | 137.3* | 58.2* %
O=C(c1ccc(OCCCCCCCCN2CCCC2)cc1)c1c(-c2ccc(O)cc2)sc2cc(O)ccc12 [Preparation C, [2-(4-Hydroxyphenyl)-6-hydroxybenzo[b]thien-3-yl][4-[8-(1-pyrrolidinyl)octyloxyl]phenyl]methanone] |  |  |  |  |  |  | 31.3* % | 72.8* % | 4.2 | 18.3* % | 40.3* | 69.3* %
O=C(c1ccc(OCCCCCN2CCCC2)cc1)c1c(-c2ccc(O)cc2)sc2cc(O)ccc12 [Example 13, [2-(4-Hydroxyphenyl)-6-hydroxybenzo[b]thien-3-yl][4-[5-(1-pyrrolidinyl)pentyloxyl]phenyl]methanone] |  |  |  |  |  |  | 36.4* % | 52.9* % | 5.8 | 10.1% | 37.8* | 39.2* %
O=C(c1ccc(OCCCCCCCN2CCCC2)cc1)c1c(-c2ccc(O)cc2)sc2cc(O)ccc12 [Example 11, [2-(4-Hydroxyphenyl)-6-hydroxybenzo[b]thien-3-yl][4-[7-(1-pyrrolidinyl)heptyloxyl]phenyl]methanone] |  |  |  |  |  |  | 32.4* % | 60.5* % | 5.9 | 9.3% | 59.2* | 64.0* %
O=C(c1ccc(OCCCCCCN2CCCC2)cc1)c1c(-c2ccc(O)cc2)sc2cc(O)ccc12 [Example 12, [2-(4-Hydroxyphenyl)-6-hydroxybenzo[b]thien-3-yl][4-[6-(1-pyrrolidinyl)hexyloxyl]phenyl]methanone] |  |  |  |  |  |  | 34.2* % | 74.0* % | 2.6 | −2.6% | 17.2* | 47.8* %
O=C(c1ccc(OCCCCN2CCCC2)cc1)c1c(-c2ccc(O)cc2)sc2cc(O)ccc12 [Example 14, [2-(4-Hydroxyphenyl)-6-hydroxybenzo[b]thien-3-yl][4-[4-(1-pyrrolidinyl)butyloxyl]phenyl]methanone] |  |  |  |  |  |  | 37.9* % | 65.7* % | 24.3* | 21.4* % | 66.5* | 62.0* %
